Columns and labels:
TLR4 [1] = target: T1, TLR4 (Mus musculus, UniProt Q9JHF9+Q9QUK6); experiment: TNF-α secretion by dendritic cells (APC) cocultured with PAEC, ELISA; assay type: cell-based; details: cocultures of PAEC and murine APCs, TLR4-positive or -negative
T1 sequence (Q9QUK6 26-835): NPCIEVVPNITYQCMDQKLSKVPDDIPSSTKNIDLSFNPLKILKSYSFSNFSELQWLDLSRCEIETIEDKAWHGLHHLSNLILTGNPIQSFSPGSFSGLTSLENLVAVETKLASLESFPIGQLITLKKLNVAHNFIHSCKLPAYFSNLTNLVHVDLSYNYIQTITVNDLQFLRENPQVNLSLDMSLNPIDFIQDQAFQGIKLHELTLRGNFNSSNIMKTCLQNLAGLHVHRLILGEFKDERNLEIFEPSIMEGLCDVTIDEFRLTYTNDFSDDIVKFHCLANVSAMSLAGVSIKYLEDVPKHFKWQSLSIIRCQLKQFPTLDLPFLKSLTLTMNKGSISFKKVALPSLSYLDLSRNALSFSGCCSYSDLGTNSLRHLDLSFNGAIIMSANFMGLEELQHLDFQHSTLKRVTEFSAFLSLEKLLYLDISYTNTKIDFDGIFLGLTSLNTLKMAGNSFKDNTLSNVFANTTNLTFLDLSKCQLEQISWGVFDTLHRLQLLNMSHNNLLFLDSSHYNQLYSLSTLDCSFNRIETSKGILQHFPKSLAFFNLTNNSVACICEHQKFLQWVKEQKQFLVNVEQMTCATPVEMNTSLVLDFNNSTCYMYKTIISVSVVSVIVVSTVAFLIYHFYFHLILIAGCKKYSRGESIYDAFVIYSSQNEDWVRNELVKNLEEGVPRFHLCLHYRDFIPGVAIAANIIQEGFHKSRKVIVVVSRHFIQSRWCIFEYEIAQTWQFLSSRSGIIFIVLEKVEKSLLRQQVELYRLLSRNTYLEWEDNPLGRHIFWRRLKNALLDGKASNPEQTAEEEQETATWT
T1 sequence (Q9JHF9 19-160): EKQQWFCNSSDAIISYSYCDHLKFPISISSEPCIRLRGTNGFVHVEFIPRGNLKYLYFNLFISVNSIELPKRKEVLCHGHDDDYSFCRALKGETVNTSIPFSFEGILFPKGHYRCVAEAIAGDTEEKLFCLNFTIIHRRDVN
Experimental: Cell Isolation and Culture. Dendritic cells were generated from murine bone marrow cultures as previously described (Kodaira et al. (2000) J. Immunol. 165:1599). At day 6 or 7 of culture, nonadherent cells and loosely adherent proliferating dendritic cell aggregates were harvested for analysis or stimulation. PAEC were cultured to confluence and their identity was confirmed as previously described (Ryan and Maxwell (1986) J. Tissue Cult. Methods 10:3).
Cell Culture Stimulation. Dendritic cells (2×10^6 per ml) cocultured with confluent monolayers of PAEC in 96-well plates were stimulated with 10 μg/ml chondroitin sulfate, 500 ng/ml CpG DNA, 10 ng/ml LPS, 10 μg/ml HS, 50 μg/ml zymosan, or PBS, unless otherwise indicated. To control for purity, agonists were pretreated with END-X B15, or mixed with Limulus anti-LPS factor before stimulation of cells, as indicated. In some experiments, agonists were boiled before use for 60 minutes at 100° C.
Cytokine Quantification. Age-matched female mice were injected in the peritoneum with 0.5 U of elastase, 5 mg of HS, 200 U of heparin, 150 μg of CpG DNA, or PBS with a total volume of 250 μl. One hour and 3 hours after injection, 100-μl blood samples were collected from the tail vein. […] Concentrations of TNF-α were analyzed by enzyme-linked sandwich ELISA (R&D Systems, Minneapolis, Minn.). […]

TLR4 [2] = experiment: Serum TNF-α after i.p. injection in mice, ELISA; assay type: in vivo
Experimental: Cytokine Quantification. Age-matched female mice were injected in the peritoneum with 0.5 U of elastase, 5 mg of HS, 200 U of heparin, 150 μg of CpG DNA, or PBS with a total volume of 250 μl. One hour and 3 hours after injection, 100-μl blood samples were collected from the tail vein. Cell supernatants and serum samples were immediately frozen at −20° C. until analysis. Concentrations of TNF-α were analyzed by enzyme-linked sandwich ELISA (R&D Systems, Minneapolis, Minn.).

[3] = Loss of HS from spleen tissue after intrasplenic injection (immunopathology); assay type: in vivo, mice; details: within 5 hours of injection
Experimental: Immunopathology. After intraperitoneal (i.p.) injection of ketamine and xylazine, murine spleens were directly visualized through an incision in the lateral abdominal wall and injected with 100 μl of PBS containing 0.1 U of elastase or PBS alone. Five hours later, the spleen was harvested and pieces snap-frozen. Tissue sections were prepared and stained as previously described (Dempsey et al. supra) with the several modifications. In particular, secondary and tertiary antibodies were mouse serum (Jackson ImmunoResearch Laboratories, West Grove, Pa.) preabsorbed and diluted in M.O.M. diluent (Vector Laboratories, Burlingame, Calif.). Fluorescent images were converted to grayscale using SPOT software (Diagnostic Instruments, Sterling Heights, Mich.).
To determine whether elastase liberates HS in vivo, spleen tissues were harvested from mice that had been injected intrasplenically with the enzyme, and the tissues were tested for the presence of HS. […] Thus, pancreatic elastase can induce loss of HS proteoglycan from tissues in vivo.

TLR4/MD2 complex = target: T2, TLR4/MD2 complex (Mus musculus, UniProt Q9JHF9+Q9QUK6); experiment: Cell surface expression of TLR4/MD2 in HEK/TLR4(+) cells by flow cytometry; assay type: cell-based, murine
T2 construct: expressed in transfected cells; host or cells: HEK 293 clone HEK/TLR4(+)
T2 sequence (Q9QUK6 26-835): T1 sequence (Q9QUK6 26-835)
T2 sequence (Q9JHF9 19-160): T1 sequence (Q9JHF9 19-160)
Experimental: FIG. 2A is a graph plotting the level of reporter activity in HEK/TLR4(+) cells transfected with NFκB- and control-luciferase reporter plasmids and then stimulated with intact HS or LPS, or with HS or LPS that had been treated with nitrous acid (HNO2) at pH 4.0 or pH 1.5. Controls were treated with PBS vehicle. […] FIG. 2C is a graph showing the effect of PBS, HS, depolymerized HS (nitrous acid, pH 1.5), and recombinant human IL-1α on cell surface expression of TLR4/MD2 in HEK/TLR4(+) cells. Expression of TLR4 on the cell surface was determined by flow cytometry using a monoclonal antibody specific to the TLR4/MD2 complex. Values are the mean of triplicate wells and are representative of three separate experiments.
To determine whether the effect of HS occurred through specific action on TLR4, surface expression of the TLR4/MD2 complex on cells treated with HS was examined. […] Thus, HEK/TLR4(+) cells responded to HS by activating NFκB and mobilizing receptor complexes.

[4] = TLR4-mutant mice, up to 3 hours
[5] = wild-type mice, 1 hour after treatment

Substance | TNF-α secretion by APC (TLR4 [1]) | Serum TNF-α (TLR4 [2]; [4]) | Serum TNF-α (TLR4 [2]; [5]) | Loss of HS from blood vessels of spleen [3] | Decrease in surface expression of TLR4/MD2 (TLR4/MD2 complex) [%] | Change in surface expression of TLR4/MD2 (TLR4/MD2 complex)
elastase: pancreatic elastase (Calbiochem; type IV porcine pancreatic elastase, Sigma-Aldrich), protease that cleaves ECM proteins | secreted TNF-α in a TLR4-dependent manner | not detectable | high serum levels of TNF-α | lost HS from blood vessels at the injection site |  | 
heparan sulfate [HS] | secreted TNF-α in a TLR4-dependent manner | not detectable | high serum levels of TNF-α |  | 60 | 
lipopolysaccharide [LPS] |  |  |  |  |  | a decrease similar to that induced by LPS

Source: patent US20100158808A1, “Altered Activity of Toll-Like Receptors” (priority 2003, published 2010)
